What was measured:
[1] = tested on: protein synthesis in H9 embryonic stem cells; assay: 35S-Met metabolic labeling of protein synthesis, ES cells; assay type: cell-based, human; details: 12 hours; 20 μM PluriSIn #1 or 100 nm A939572
Protocol: H9 embryonic stem cells were seeded in Matrigel™ pre-coated 6-well tissue culture plates at a density of 2×10^5 cells/well, and cultured using mTeSR1 defined medium. BJ fibroblasts were seeded in 6-well tissue culture plate at the same density, and cultured with DMEM supplemented with 10% FBS, penicillin (50 U/ml) and streptomycin (50 μg/ml). Cells were treated for 12 hours with either 20 μM PluriSIn #1 (isonicotinic acid N′-phenylhydrazide) or with 0.2% DMSO. Cells were then washed with PBS, and replenished with methionine-deficient medium for 1 hour. Metabolic labeling of the cells was then performed for 1 hour with 10 μCi of […] methionine in 1 ml/well, in the presence of 20 μM PluriSIn #1 or 0.2% DMSO. Cells were washed with PBS containing 10 mM methionine, and were then lysed in 0.4 ml of 30% ice-cold trichloroacetic acid (TCA) containing 10 mM methionine for 15 minutes. […] Total protein concentration was determined using a Bradford Protein Assay (Sigma-Aldrich), and the radioactivity measurements were normalized accordingly. […]
The similarity between PSIs and PluriSIn #1 and #6 is consistent with the fact that UPR can lead to translational attenuation. In order to confirm this link, the effect of PluriSIn #1 treatment on protein synthesis was determined. […]

[2] = tested on: hPSC-derived teratomas; assay: Teratoma formation from pre-treated hPSCs in NOD-SCID IL2Rγ−/− mice; assay type: in vivo, mouse; details: for teratoma formation at the side injected with pre-treated cells: cells pre-treated before injection into mice; for Incidence of teratoma formation, undifferentiated cells only: hPSCs pre-treated 48 h with 20 μM
Protocol: Human embryonic stem cell and induced pluripotent stem cell lines were cultured without feeder cells in CELLSTAR® 6-well tissue culture plates (Greiner Bio-One) pre-coated with Matrigel™, using mTeSR1 defined medium. Cells were treated for 24 hours with either 20 μM PluriSIn #1 (isonicotinic acid N′-phenylhydrazide) in 0.2% DMSO or with 0.2% DMSO, followed by medium replacement and a second treatment for another 24 hours. 48 hours after initial exposure to the tested compound, cells were harvested with trypsin-EDTA and resuspended in a 1:1 mTeSR1:Matrigel™ mixture to a total volume of 200 μl. Cells were then injected subcutaneously to the back of NOD-SCID IL2Rγ−/− mice (Jackson Laboratory). Six weeks after injection mice were sacrificed, the formation of tumors was examined, and the resulting teratomas were photographed, dissected and cryopreserved in O.C.T. compound (Sakura Finetek, Torrance, Calif.).
Alternatively, human embryonic stem cells and induced pluripotent stem cells were spontaneously differentiated in culture for a period of 10 days, by growing them on gelatin-coated culture plates with 85% knockout DMEM medium supplemented with 15% knockout serum replacement, 1 mM glutamine, 0.1 mM β-mercaptoethanol, 1% nonessential amino acids, penicillin (50 U/ml) and streptomycin (50 μg/ml), without basic fibroblast growth factor (bFGF). Retinoic acid was added to the medium at a final concentration of 1 μM. 10 days later, the differentiated cells were harvested and plated at a 1:1 ratio with their undifferentiated parental cells in CELLSTAR® 6-well tissue culture plates (Greiner Bio-One) pre-coated with Matrigel™, with mTeSR1 defined medium. Cells were treated for 24 hours with either 20 μM PluriSIn #1 or 0.2% DMSO, followed by medium replacement and a second treatment for another 24 hours. 48 hours after initial exposure to the compound, cells were harvested with trypsin-EDTA and counted using a Countess automated cell counter (Invitrogen). 1 million viable cells from each condition were resuspended in a 1:1 mTeSR1:Matrigel™ mixture to a total volume of 200 μl. Cells were then injected subcutaneously to the back of NOD-SCID IL2Rγ−/− mice. Each mouse was injected with PluriSIn #1-treated cells into one side of its body and control-treated cells into the other side. Six weeks after injection mice were sacrificed, the formation of tumors was examined, and the resulting teratomas were photographed, dissected and cryopreserved in O.C.T. compound.
To evaluate in vivo tumorigenicity, hPSCs were cultured under the abovementioned conditions in the presence or absence of PluriSIn #1, and the cultures were then injected subcutaneously into immuno-compromised NOD-SCID IL2Rγ−/− mice, which have been previously reported to be especially susceptible to human-derived tumors [Quintana et al., Nature 456:593-598 (2008)]. Mice were sacrificed after 4-6 weeks, and teratoma formation was then assessed.
Similarly, CSES2-SO2 and BJ-iPS28 cell lines were injected into immune-compromised mice (2 mice for each cell line), with control cells and treated cells being injected into the two body sides of the same animal.
The effect of PluriSIns was on teratoma formation was then evaluated in a model designed to simulate a clinical setting. Human ES and iPS cells were spontaneously differentiated in culture for a period of 10 days, and the differentiated cells were then harvested and plated together with undifferentiated cells, in a 1:1 mixture of undifferentiated and differentiated cells, as described in the Materials and Methods section. Following a 48 hour exposure to PluriSIn #1, cells were harvested and injected subcutaneously into NOD-SCID IL2Rγ−/− mice, with each mouse being injected with PluriSin #1-treated cells into one side of its body and with control cells into the other side. The same total number of cells was injected into both sides.

SMILES | decrease in protein synthesis, ES cells [1] | teratoma formation at the side injected with pre-treated cells [2] | Incidence of teratoma formation, 1:1 mixture of undifferentiated and differentiated cells ([2]; cells pre-treated 48 h with 20 μM, injected subcutaneously) | Incidence of teratoma formation, undifferentiated cells only ([2]; injected subcutaneously) | Incidence of teratoma formation, undifferentiated cells only ([2]; injected subcutaneously, listed as PluriSn #1) | mice that developed teratomas, H9 ES cells ([2]; treated H9 ES cells injected)
CNC(=O)c1cccc(NC(=O)N2CCC(Oc3ccccc3Cl)CC2)c1 [A939572, 4-(2-chlorophenoxy)-N-(3-(methylcarbamoyl)-phenyl)piperidine-1-carboxamide, reference compound] | approximately 50% | protective effect against teratoma formation |  |  |  | 
O=C(NNc1ccccc1)c1ccncc1 [PluriSIn #1, isonicotinic acid N′-phenylhydrazide] | approximately 30% | no teratoma is visible | 0/4 | 11/11 | 0/11 | 0/3
